Data on two compounds can be found in patent US20130190314A1, “DERIVATIVES OF 6-CYCLOAMINO-2-THIENYL-3-(PYRIDIN-4-YL)IMIDAZO[1,2-b]-PYRIDAZINE AND 6-CYCLOAMINO-2-FURANYL-3-(PYRIDIN-4-YL)IMIDAZO[1,2-b]-PYRIDAZINE, PREPARATION AND THERAPEUTIC USE THEREOF” (priority 2008, published 2013).

Data set [1] deals with T1, casein kinase 1 epsilon (CK1 epsilon) (Homo sapiens, UniProt P49674).
T1 construct: Invitrogen Corporation (alternative)
Kind of data set: Filter-plate assay of ATP-33P: inhibition of phosphorylation of casein by CK1 epsilon. Format: biochemical. The settings on record: casein substrate, 10 μM ATP, 2 hours at ambient temperature. As to the method: The capacity of the compounds of the invention to inhibit the phosphorylation of casein by casein kinase 1 epsilon and delta can be evaluated according to the procedure described in document US 2005/0131012.
Filter-Plate Assay of ATP-^33P for the Screening of CK1 Epsilon Inhibitors:
The effect of the compounds on inhibition of the phosphorylation of casein by the enzyme casein kinase 1 epsilon (CK1 epsilon) is measured using a casein assay with filtration of ATP-^33P in vitro.
Casein kinase 1 epsilon (0.58 mg/ml) is obtained via fermentation and purification processes carried out according to methods well known to those skilled in the art, or may also be obtained from Invitrogen Corporation™ (human CK1 epsilon).
The compounds are tested at five different concentrations so as to generate IC50 values, i.e. the concentration at which a compound is capable of inhibiting the enzymatic activity by 50%, or alternatively the % inhibition at a concentration of 10 micromolar.
“U”-bottomed Falcon plates are prepared by placing 5 μl of solutions of the compounds according to the invention at concentrations of 10, 1, 0.1, 0.01 or 0.001 μM in various wells. The solutions of the compounds according to the invention at these various concentrations are prepared by diluting in a test buffer (50 mM Tris, pH 7.5, […], 2 mM DTT and 1 mM EGTA) a stock solution in DMSO at a concentration of 10 mM. Next, 5 μl of dephosphorylated casein are added to a final concentration of 0.2 μg/μl, 20 μl of CK1 epsilon are added to a final concentration of 3 ng/μl, and 20 μl of ATP-^33P are added to a final concentration of 0.02 μCi/μl mixed with cold ATP (10 μM final—approximately 2×10^6 CPM per well). The final total test volume per well is equal to 50 μl.
The “U”-bottomed Falcon® test plate mentioned above is vortexed, and then incubated at ambient temperature for 2 hours. After 2 hours, the reaction is stopped by adding an ice-cold solution of 65 μl of cold ATP (2 mM) prepared in test buffer. 100 μl of the reaction mixture are then transferred from the “U”-bottomed Falcon®plate into Millipore MAPH filter plates, preimpregnated with 25 μl of ice-cold 100% TCA. […]
The plates are left to dry overnight at ambient temperature. […] The radiation emitted by each well is then measured for 2 minutes in a Packard® Topcount NXT scintillation counter, in which the values of CPM/well are measured.
The % inhibition of the capacity of the enzyme to phosphorylate the substrate (casein) is determined for each concentration of compound tested. These inhibition data expressed as percentages are used to calculate the IC50 value for each compound compared with the controls.
The kinetic studies determined the KM value for ATP as being 21 μM in this test system.

T1 sequence (P49674 whole entry): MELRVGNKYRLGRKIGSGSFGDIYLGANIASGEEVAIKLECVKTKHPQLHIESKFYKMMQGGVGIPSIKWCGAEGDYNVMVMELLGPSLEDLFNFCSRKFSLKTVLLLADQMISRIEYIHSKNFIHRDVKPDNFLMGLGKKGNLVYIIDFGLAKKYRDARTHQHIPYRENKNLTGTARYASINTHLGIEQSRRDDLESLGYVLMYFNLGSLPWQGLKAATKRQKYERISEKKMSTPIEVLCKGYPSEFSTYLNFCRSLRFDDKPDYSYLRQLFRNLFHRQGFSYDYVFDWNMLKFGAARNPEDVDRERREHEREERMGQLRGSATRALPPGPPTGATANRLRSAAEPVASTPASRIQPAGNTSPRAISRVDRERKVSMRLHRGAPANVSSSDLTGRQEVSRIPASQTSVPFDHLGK

For the compound `OCCN1CCN(c2ccc3nc(-c4ccc(Cl)s4)c(-c4ccncc4)n3n2)CC1` [Compound 14, 2-{4-[2-(5-chlorothien-2-yl)-3-(pyridin-4-yl)imidazo[1,2-b]pyridazin-6-yl](piperazin-1-yl)}ethanol], the melting point (as a rule, the temperature, or range, at which the solid turns liquid) is 216 to 218 °C. Also, 19 nM corresponded to half-maximal inhibition in data set [1] (IC50).

As to `Cc1ccc(-c2nc3ccc(N4CCNCC4)nn3c2-c2ccncc2)s1` [Compound 10, 2-(5-methylthien-2-yl)-6-(piperazin-1-yl)-3-(pyridin-4-yl)imidazo[1,2-b]pyridazine], in data set [1], it took 87 nM to reach half-maximal inhibition (IC50).
